Read-outs that look alike come from different tables or passages of the source.

Holding throughout (format): cell-based
One assay concerns Molm13 cells. The experiment in a line: Anti-AML activity, WST-1 viability (Example 72). The note with it: Homo sapiens; Molm 13 cells, 20% O2, 24 h of incubation, WST-1; read-out: Molm 13 IC50 20% O2. How it is done: Dry powder of analogs were dissolved in DMSO. IPC-18 rat AML cells (Lacaze, N. et al. Leuk. Res. 1983, 7, 145.) were cultured in DMEM medium (Sigma-Aldrich, St. Louis, Mo., USA) supplemented with 10% horse serum (Invitrogen, Carlsbad, Calif., USA), and antibiotics (50 U/mL of penicillin and 0.05 mg/mL streptomycin). Molm13 (Matsuo, Y. et al. Leukemia 1997, 11, 1469.) cells were cultured in RPMI supplemented with antibiotics (50 U/mL of penicillin and 0.05 mg/mL streptomycin) and 10% fetal bovine serum (FBS, Invitrogen, Carlsbad, Calif.) and kept in exponential growth before the experiments. Dilution series of iodinin analogs were added to medium and cell suspension added to reach a final cell concentration of 150 000 cells/ml in 0.1 mL in a 96 well tissue culture plate. […] The cells were incubated with the iodinin analogs for 22 h before WST-1 was added according to the manufacturers protocol, and the cells incubated further in 2 h. Mitochondrial conversion of WST-1 to its colored metabolite was measured by a plate reader at 450 nm, with 620 nm as the reference wavelength. The cells were next fixed by adding 4% buffered formaldehyde (PBS, pH 7.4, supplemented with 0.01 mg/mL Hoechst 33342 for nuclear visualization) to the cell suspension at 1:1 (v/v) ratio (final concentration of formaldehyde:[…]). The cells' nuclear and surface morphology were examined microscopically and results compared with the WST-1 viability assay. The results given in Table I are based on WST-1 data.
For orientation: Tetrazolium assays rely on reduction of a dye to a coloured formazan, in cell work by metabolically active cells.

The subject of assay [1] is normal rat kidney epithelial (NRK) cells. As to the kind of experiment: Cytotoxicity, WST-1 and nuclear morphology (Example 73). How it is done: (§1) All cell culturing media and serum were from Sigma-Aldrich (St. Louis, Mo., USA). Product Nos. are given in parentheses. The human acute myeloid leukemia cell line MOLM-13 was cultured in RPMI medium (R5886) enriched with […] (F7524) and 0.2 mM L-glutamine (G7513). The normal rat kidney epithelial (NRK) and the rat cardiomyoblast (H9c2) cells were cultured in DMEM medium (D6429) enriched with 10% fetal bovine serum (F7524). All cell lines were additionally supplemented with 100 IU/mL penicillin and […] (P0781). The cells were cultured in a humidified atmosphere either under 2% or 20% O2 at 37° C.
(§2) All analogues were dissolved in DMSO (D5879, Sigma-Aldrich) at concentrations between 2.5 and 20 mM before testing. For cytotoxic testing, the MOLM-13 cells were seeded as 20,000 cells/well, while NRK and H9c2 cells were seeded as 5,000 cells/well in 96-well Microplates (#167008, Thermo Scientific™ Nunc™ MicroWell™) with 100 μL medium/well. The cells were exposed to various concentrations of iodinin or its analogues for 24 hrs before the cell proliferation reagent WST-1 was used to assess the viability, in accordance with the manufacturer's instructions (11644807001, Roche Diagnostics, Sigma-Aldrich). The cells were next fixed in 2% buffered formaldehyde (pH 7.4) with the DNA-specific dye Hoechst 33342 (Polysciences Inc.) and assessed for cell death by UV-microscopy based on nuclear morphology. The highest concentration of analogue corresponded to 1% of DMSO, which alone gave less than 7% cell death as judged by nuclear morphology.
(§3) EC50 values were determined by analyses of WST-1 signal results as well as microscopic evaluation of cell death by four-parameter regression analyses using the SigmaPlot software (Systat Software inc. San Jose, Calif.):
(§4) [formula] where Y is the response (WST-1 signal or percent apoptosis), min and max are minimum and maximum response, X is concentration of analogue, EC50 equals the point of inflection, i.e. the point that gives half of maximum response, and h is the Hill's slope of the curve. The two methods gave consistent response curves for each analogue. In the case of Tirapazamine, where its colour interfered with the WST-1 signal, only microscopic evaluation of Hoechst stained cells was used in order to calculate its EC50 values.

Assay [2] deals with rat cardiomyoblast (H9c2) cells. The description is as above. The note with it: read-out: EC50 (μM) H9c2 19% O2. On the procedure: as §1, §2, §3, §4
Assay [3] deals with human acute myeloid leukemia cell line MOLM-13. The description is as above. How it is done:
as §1, §2, §3, §4

[4] abbreviates: Rattus norvegicus, 2% O2, 24 hours of incubation, read-out: EC50 (μM) NRK 2% O2.
The mark [5] stands for this setting: Rattus norvegicus, 19% O2, 24 hours of incubation, read-out: EC50 (μM) NRK 19% O2.
Where [6] appears, read: Rattus norvegicus, H9c2, 19% O2, 24 hours of incubation.
[7] abbreviates: Homo sapiens, MOLM-13, 2% O2, 24 hours of incubation, read-out: EC50 (μM) MOLM-13 2% O2.
The mark [8] stands for this setting: Homo sapiens, MOLM-13, 19% O2, 24 hours of incubation, read-out: EC50 (μM) MOLM-13 19% O2.
Setting [9] is: Homo sapiens, MOLM-13, 24 h, read-out: EC50 (μM) MOLM-13 2% O2.
Setting [10] is: Homo sapiens, MOLM-13, 24 h, read-out: EC50 (μM) MOLM-13 19% O2.
The mark [11] stands for this setting: Rattus norvegicus, 24 h, read-out: EC50 (μM) NRK 2% O2, NRK, 2% O2, 24 hours of incubation.
Setting [12] is: Rattus norvegicus, 24 h, read-out: EC50 (μM) NRK 19% O2, NRK, 19% O2, 24 hours of incubation.
[13] abbreviates: H9c2, 19% O2, 24 hours of incubation.
Setting [14] is: MOLM-13, 2% O2, 24 hours of incubation, read-out: EC50 (μM) MOLM-13 2% O2.
The mark [15] stands for this setting: MOLM-13, 19% O2, 24 hours of incubation, read-out: EC50 (μM) MOLM-13 19% O2.

In general, IC50 refers to the concentration that gives 50% inhibition. Take `[O-][n+]1c2ccccc2[n+]([O-])c2c(O)cccc21` [Example 4a, 1-hydroxyphenazine 5,10-dioxide]: the IC50 in the assay on Molm13 cells was found to be 4.5 µM.
Broadly, the EC50 is the concentration giving half of the maximal effect. Consider `CCOC(=O)COc1cccc2c1[n+]([O-])c1cc(C)c(C)cc1[n+]2[O-]` [Example 6b, 1-(2-ethoxy-2-oxoethoxy)-7,8-dimethylphenazine 5,10-dioxide], for which the EC50 in assay [1] (setting [4]) is over 100 µM; in assay [1] (setting [5]), 140 ± 2 µM; in assay [2] (setting [6]) it was over 100 µM; in assay [3] (setting [7]), 6.3 ± 0.25 µM; in assay [3] (setting [8]) it was 8.3 ± 0.78 µM.
In the case of `CN1CCN(C(=O)Oc2cccc3c2[n+]([O-])c2cc(Br)c(Br)cc2[n+]3[O-])CC1` [Example 8g, 7,8-dibromo-1-((4-methylpiperazine-1-carbonyl)oxy)phenazine 5,10-dioxide], the concentration for a half-maximal effect (EC50) in assay [1] (read-out: EC50 (μM) NRK 2% O2, 2% O2, 24 hours of incubation) was 62 ± 1.3 µM; in assay [1] (read-out: EC50 (μM) NRK 19% O2, 19% O2, 24 hours of incubation), 49 ± 1.8 µM; in assay [2] (Rattus norvegicus, H9c2, 24 h), 64 ± 9.2 µM; in assay [3] (setting [9]), 0.7 ± 0.04 µM; in assay [3] (setting [10]), 0.89 ± 0.03 µM.
Regarding `O=C(Oc1cccc2c1[n+]([O-])c1cccc(O)c1[n+]2[O-])N1CCCC1` [Example 8j, 1-hydroxy-6-((pyrrolidine-1-carbonyl)oxy)phenazine 5,10-dioxide], the EC50 in assay [1] (setting [11]) was 15 ± 1 µM; in assay [1] (setting [12]), 9.6 ± 0.38 µM; in assay [2] (setting [13]), 12 ± 0.7 µM; in assay [3] (setting [14]), 0.79 ± 0.09 µM; in assay [3] (setting [15]), 0.86 ± 0.05 µM.
For `Cc1c(C)[n+](O)c2c(O)cccc2[n+]1[O-]` [Example 12, 5-hydroxy-2,3-dimethylquinoxaline 1,4-dioxide], the EC50 in assay [3] (setting [7]) and in assay [3] (setting [8]) was over 200 µM each time.
As for `Cc1c(C)[n+]([O-])c2c(OC(=O)N3CCN(C)CC3)cccc2[n+]1[O-]` [Example 13, 2,3-dimethyl-5-((4-methylpiperazine-1-carbonyl)oxy)quinoxaline 1,4-dioxide], the EC50 in assay [3] (setting [14]) and in assay [3] (setting [15]) was over 200 µM throughout.
Regarding `[O-][n+]1c2ccccc2[n+]([O-])c2c(O)cccc21` [Example 17, 1-hydroxyphenazine 5,10-dioxide], the EC50 in assay [1] (setting [4]) was over 100 µM; in assay [1] (setting [5]), 79 ± 4.2 µM; in assay [2] (setting [6]), over 100 µM; in assay [3] (setting [7]), 12 ± 0.04 µM; in assay [3] (setting [8]), 11 ± 1.8 µM.
Take `CC(C)(C)OC(=O)COc1cccc2c1[n+]([O-])c1ccccc1[n+]2O` [Example 19, 1-(2-(tert-butoxy)-2-oxoethoxy)phenazine 5,10-dioxide]: the EC50 in assay [1] (setting [4]) turned out to be 25 ± 1.9 µM; in assay [1] (setting [5]) it was 26 ± 0.7 µM; in assay [2] (setting [6]) it was 20 ± 2.1 µM; in assay [3] (setting [7]), 1.9 ± 0.11 µM; in assay [3] (setting [8]), 2.2 ± 0.09 µM.
`CCN(CC)C(=O)COc1cccc2c1[n+]([O-])c1ccccc1[n+]2[O-]` [Example 21, 1-(2-(diethylamino)-2-oxoethoxy)phenazine 5,10-dioxide]: the EC50 in assay [1] (setting [4]) worked out at 16 ± 1 µM; in assay [1] (setting [5]), 13 ± 0.01 µM; in assay [2] (setting [6]) it was 23 ± 0.1 µM; in assay [3] (setting [7]), 1.4 ± 0.15 µM; in assay [3] (setting [8]), 1.2 ± 0.08 µM.
As for `O=C(Oc1cccc2c1[n+]([O-])c1ccccc1[n+]2[O-])N1CCCC1` [Example 24, 1-((pyrrolidine-1-carbonyl)oxy)phenazine 5,10-dioxide], the 50% effective concentration (EC50) in assay [1] (setting [11]) stood at 21 ± 2.4 µM; in assay [1] (setting [12]), 18 ± 0.6 µM; in assay [2] (setting [13]), 13 ± 0.5 µM; in assay [3] (setting [14]) it was 1.2 ± 0.15 µM; in assay [3] (setting [15]), 1.5 ± 0.18 µM.
For `CC(C)(C)OC(=O)COc1cccc2c1[n+]([O-])c1cccc(OCC(=O)OC(C)(C)C)c1[n+]2[O-]` [Example 36, 1,6-bis(2-(tert-butoxy)-2-oxoethoxy)phenazine 5,10-dioxide], the EC50 stood at 27 ± 1.8 µM in assay [1] (setting [4]), 27 ± 1.2 µM in assay [1] (setting [5]), 3.3 ± 0.22 µM in assay [3] (setting [7]) and 4.2 ± 0.2 µM in assay [3] (setting [8]).
For the molecule `O=C(O)COc1cccc2c1[n+]([O-])c1cccc(OCC(=O)O)c1[n+]2[O-]` [Example 37, 1,6-bis(carboxymethoxy)phenazine 5,10-dioxide], the EC50 is over 200 µM in assay [1] (setting [4]), over 200 µM in assay [1] (setting [5]), 39 ± 9 µM in assay [3] (setting [7]) and 18 ± 3 µM in assay [3] (setting [8]).
Take `Cc1cc2c(cc1C)[n+]([O-])c1c(O)cccc1[n+]2[O-]` [Example 48, 1-hydroxy-7,8-dimethylphenazine 5,10-dioxide]: the EC50 is over 50 µM in assay [1] (setting [4]); over 50 µM in assay [1] (setting [5]); over 50 µM in assay [2] (setting [6]); 2.3 ± 0.1 µM in assay [3] (setting [7]); 2.8 ± 0.25 µM in assay [3] (setting [8]).
With `[O-][n+]1c2ccccc2[n+]([O-])c2cc(O)ccc21` [Example 60, 2-hydroxyphenazine 5,10-dioxide], the 50% effective concentration (EC50) was over 200 µM in assay [2] (setting [6]), 45 ± 3.5 µM in assay [3] (setting [7]) and 128 ± 3 µM in assay [3] (setting [8]).
Take `CCOC(=O)COc1ccc2c(c1)[n+](O)c1ccccc1[n+]2O` [Example 62, 2-(2-ethoxy-2-oxoethoxy)phenazine 5,10-dioxide]: the figures for the EC50 in assay [2] (setting [6]), in assay [3] (setting [7]) and in assay [3] (setting [8]) were 45 ± 4.8 µM, 15 ± 0.7 µM and 32 ± 5 µM, respectively.
For `CN1CCN(C(=O)Oc2ccc3c(c2)[n+](O)c2ccccc2[n+]3O)CC1` [Example 63, 2-((4-methylpiperazine-1-carbonyl)oxy)phenazine 5,10-dioxide], the EC50 in assay [2] (Rattus norvegicus, H9c2, 24 h) is 53 ± 0.3 µM; in assay [3] (setting [9]) it was 3.5 ± 0.19 µM; in assay [3] (setting [10]), 14 ± 0.4 µM.
On to `Cc1cc2c(cc1C)[n+]([O-])c1cc(O)ccc1[n+]2[O-]` [Example 64, 7-hydroxy-2,3-dimethylphenazine 5,10-dioxide], for which the EC50 in assay [2] (setting [6]) was over 200 µM; in assay [3] (setting [7]) it was 50 ± 3.8 µM; in assay [3] (setting [8]) it was 117 ± 1 µM.
With `Cc1cc2c(cc1C)[n+](O)c1cc(OC(=O)N3CCN(C)CC3)ccc1[n+]2[O-]` [Example 65, 2,3-dimethyl-7-((4-methylpiperazine-1-carbonyl)oxy)phenazine 5,10-dioxide], the EC50 in assay [2] (Rattus norvegicus, H9c2, 24 h) worked out at 20 ± 2.4 µM; in assay [3] (setting [9]), 2.5 ± 0.24 µM; in assay [3] (setting [10]) it was 17 µM.
For the molecule `Nc1ccc2c(c1)[n+](O)c1ccccc1[n+]2[O-]` [Example 67, 2-aminophenazine 5,10-dioxide], the results for the EC50 in assay [2] (setting [6]), in assay [3] (setting [7]) and in assay [3] (setting [8]) were 80 ± 8.9 µM, 7.6 ± 0.89 µM and 31 ± 1.4 µM, respectively.
As for `Cc1c(C)[n+]([O-])c2c(OC(=O)N3CCOCC3)cccc2[n+]1[O-]` [Example 69, 2,3-dimethyl-5-((morpholine-4-carbonyl)oxy)quinoxaline 1,4-dioxide], the EC50 in assay [3] (setting [14]) and in assay [3] (setting [15]) was over 200 µM in each case.

The values above are taken from patent publication US11958842B2, “Substituted phenazines and methods of treating cancer and bacterial diseases” (Adjutec Pharma AS, priority 2016, dated 2024).
